US6358885B1, “Substituted phenylheterocyclic herbicides” (Mississippi State University, priority 1992, dated 2002)

Key:
corn = test: Test C preemergence/postemergence greenhouse plant response rating 0 to 100; format: in vivo, Zea mays; settings: for Plant response rating, Corn: 0 to 100 scale
Summary of the method: (§1)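 Compounds in non-phytotoxic solvent went onto sandy loam before emergence (seeded one day earlier) or onto plants at the one-to-four leaf stage. Duck salad was treated via flood water (~2.5 cm, maintained) over silt loam.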

purple nutsedge = test: Test B preemergence/postemergence greenhouse plant response rating 0 to 10; format: in vivo, Cyperus rotundus; settings: for Plant response rating, Nutsedge: 0 to 10 scale
Summary of the method: (§2)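 Test chemicals, dissolved in a non-phytotoxic solvent, were applied to soil at planting and, at the same time, over foliage of seedlings at the one to four leaf stage.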

cocklebur = test: as above; format: in vivo, Xanthium pensylvanicum; settings: for Plant response rating, Cocklebur: 0 to 10 scale
Summary of the method: as §2

velvetleaf = test: Test C preemergence/postemergence greenhouse plant response rating 0 to 100; format: in vivo, Abutilon theophrasti; settings: for Plant response rating, Velvetleaf: 0 to 100 scale
Summary of the method: as §1

blackgrass = test: as above; format: in vivo, Alopecurus myosuroides; settings: for Plant response rating, Blackgrass: 0 to 100 scale
Summary of the method: as §1

umbrella sedge = test: Test C flood test plant response rating 0 to 100; format: in vivo, Cyperus difformis; settings: for Plant response rating Umbrella sedge: flood test species listed under POSTEMERGENCE, 0 to 100 scale
Summary of the method: (§3)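 Compounds in non-phytotoxic solvent applied preemergence to sandy loam one day after planting, postemergence at the 1–4 leaf stage, or to ~2.5 cm floodwater over silt loam.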

chickweed = test: Test C preemergence/postemergence greenhouse plant response rating 0 to 100; format: in vivo, Stellaria media; settings: for Plant response rating, Chickweed: 0 to 100 scale
Summary of the method: as §1

duck salad = test: Test C flood test plant response rating 0 to 100; format: in vivo, Heteranthera limosa; settings: for Plant response rating Duck salad: flood test species listed under POSTEMERGENCE, 0 to 100 scale
Summary of the method: as §1

rice [1] = test: Test C flood test plant response rating 0 to 100; format: in vivo, Oryza sativa; settings: for Plant response rating Rice Japonica: flood test species listed under POSTEMERGENCE, 0 to 100 scale
Summary of the method: as §3

bedstraw = test: Test C preemergence/postemergence greenhouse plant response rating 0 to 100; format: in vivo, Galium aparine; settings: for Plant response rating, Bedstraw: 0 to 100 scale
Summary of the method: as §1

giant foxtail = test: as above; format: in vivo, Setaria faberii; settings: for Plant response rating, Giant foxtail: 0 to 100 scale
Summary of the method: as §1

cotton = test: as above; format: in vivo, Gossypium hirsutum; settings: for Plant response rating, Cotton: 0 to 100 scale
Summary of the method: as §1

sugar beet = test: as above; format: in vivo, Beta vulgaris; settings: for Plant response rating, Sugar beet: 0 to 100 scale
Summary of the method: as §1

rice [2] = test: Test B preemergence/postemergence greenhouse plant response rating 0 to 10; format: in vivo, Oryza sativa; settings: for Plant response rating, Rice: 0 to 10 scale
Summary of the method: as §2

soybean = test: as above; format: in vivo, Glycine max; settings: for Plant response rating, Soybean: 0 to 10 scale
Summary of the method: as §2

wild buckwheat = test: as above; format: in vivo, Polygonum convolvulus; settings: for Plant response rating, Wild buckwheat: 0 to 10 scale
Summary of the method: as §2

pigweed = test: Test C preemergence/postemergence greenhouse plant response rating 0 to 100; format: in vivo, Amaranthusretroflexus; settings: for Plant response rating Pigweed: 0 to 100 scale
Summary of the method: as §1

[3] = POSTEMERGENCE section, flood test, Rate 4 g/ha
[4] = Rate 16 g/ha, under POSTEMERGENCE head (flood test species)

C#CC(C)Oc1cc(-c2nn3c(c2Br)CCCC3)c(F)cc1Cl (centres unmarked) [Compound 66]
100: Plant response rating, Velvetleaf (velvetleaf; POSTEMERGENCE, 250 g/ha) | Plant response rating, Velvetleaf (velvetleaf; PREEMERGENCE, 250 g/ha) | Plant response rating, Chickweed (chickweed; POSTEMERGENCE, 250 g/ha) | Plant response rating, Bedstraw (bedstraw; POSTEMERGENCE, 62 g/ha) | Plant response rating, Bedstraw (bedstraw; POSTEMERGENCE, 250 g/ha) | Plant response rating, Giant foxtail (giant foxtail; PREEMERGENCE, 250 g/ha) | Plant response rating, Cotton (cotton; POSTEMERGENCE, 62 g/ha) | Plant response rating, Cotton (cotton; POSTEMERGENCE, 250 g/ha) | Plant response rating, Sugar beet (sugar beet; POSTEMERGENCE, 62 g/ha) | Plant response rating, Sugar beet (sugar beet; POSTEMERGENCE, 250 g/ha) | Plant response rating, Sugar beet (sugar beet; PREEMERGENCE, 250 g/ha) | Plant response rating (0 to 100), Sugar beet (sugar beet; Rate 16 g/ha, POSTEMERGENCE) | Plant response rating Pigweed (pigweed; POSTEMERGENCE, 62 g/ha) | Plant response rating Pigweed (pigweed; POSTEMERGENCE, 250 g/ha) | Plant response rating Pigweed (pigweed; PREEMERGENCE, 62 g/ha) | Plant response rating Pigweed (pigweed; PREEMERGENCE, 250 g/ha) | Plant response rating (0 to 100), Pigweed (pigweed; Rate 16 g/ha, POSTEMERGENCE)
40: Plant response rating, Corn (corn; POSTEMERGENCE, 62 g/ha) | Plant response rating (0 to 100), Blackgrass (blackgrass; Rate 16 g/ha, POSTEMERGENCE) | Plant response rating, Cotton (cotton; PREEMERGENCE, 62 g/ha)
30: Plant response rating (0 to 100), Corn (corn; POSTEMERGENCE, Rate 4 g/ha) | Plant response rating (0 to 100), Corn (corn; Rate 16 g/ha, POSTEMERGENCE) | Plant response rating (0 to 100), Chickweed (chickweed; POSTEMERGENCE, Rate 4 g/ha) | Plant response rating (0 to 100), Duck salad (duck salad; [4]) | Plant response rating (0 to 100), Giant foxtail (giant foxtail; POSTEMERGENCE, Rate 4 g/ha) | Plant response rating (0 to 100), Pigweed (pigweed; POSTEMERGENCE, Rate 4 g/ha)
5: Plant response rating, Rice (rice [2]; POSTEMERGENCE, Rate 50 g/ha)
20: Plant response rating (0 to 100), Blackgrass (blackgrass; POSTEMERGENCE, Rate 4 g/ha) | Plant response rating (0 to 100), Blackgrass (blackgrass; Rate 16 g/ha, PREEMERGENCE) | Plant response rating (0 to 100), Bedstraw (bedstraw; Rate 16 g/ha, PREEMERGENCE) | Plant response rating, Giant foxtail (giant foxtail; PREEMERGENCE, 62 g/ha)
6: Plant response rating, Rice (rice [2]; Rate 200 g/ha, POSTEMERGENCE) | Plant response rating, Soybean (soybean; POSTEMERGENCE, Rate 50 g/ha)
95: Plant response rating, Chickweed (chickweed; POSTEMERGENCE, 62 g/ha)
65: Plant response rating (0 to 100), Velvetleaf (velvetleaf; Rate 16 g/ha, POSTEMERGENCE)
25: Plant response rating Rice Japonica (rice [1]; 250 g/ha)
10: Plant response rating, Cocklebur (cocklebur; Rate 200 g/ha, POSTEMERGENCE) | Plant response rating Rice Japonica (rice [1]; 62 g/ha) | Plant response rating, Wild buckwheat (wild buckwheat; POSTEMERGENCE, Rate 50 g/ha) | Plant response rating (0 to 10 scale), Wild buckwheat (wild buckwheat; PREEMERGENCE, Rate 200 g/ha) | Plant response rating, Wild buckwheat (wild buckwheat; Rate 200 g/ha, POSTEMERGENCE)
8: Plant response rating, Soybean (soybean; Rate 200 g/ha, POSTEMERGENCE)
70: Plant response rating (0 to 100), Velvetleaf (velvetleaf; Rate 16 g/ha, PREEMERGENCE) | Plant response rating, Blackgrass (blackgrass; PREEMERGENCE, 62 g/ha) | Plant response rating, Blackgrass (blackgrass; PREEMERGENCE, 250 g/ha) | Plant response rating (0 to 100), Chickweed (chickweed; Rate 16 g/ha, POSTEMERGENCE) | Plant response rating, Giant foxtail (giant foxtail; POSTEMERGENCE, 62 g/ha) | Plant response rating (0 to 100), Cotton (cotton; POSTEMERGENCE, Rate 4 g/ha)
9: Plant response rating, Cocklebur (cocklebur; POSTEMERGENCE, Rate 50 g/ha)
80: Plant response rating, Blackgrass (blackgrass; POSTEMERGENCE, 250 g/ha) | Plant response rating Umbrella sedge (umbrella sedge; 250 g/ha) | Plant response rating, Chickweed (chickweed; PREEMERGENCE, 250 g/ha) | Plant response rating, Bedstraw (bedstraw; PREEMERGENCE, 62 g/ha) | Plant response rating (0 to 100), Sugar beet (sugar beet; POSTEMERGENCE, Rate 4 g/ha)
85: Plant response rating (0 to 100), Bedstraw (bedstraw; Rate 16 g/ha, POSTEMERGENCE) | Plant response rating (0 to 100), Cotton (cotton; Rate 16 g/ha, POSTEMERGENCE)
2: Plant response rating, Nutsedge (purple nutsedge; POSTEMERGENCE, Rate 50 g/ha) | Plant response rating, Nutsedge (purple nutsedge; Rate 200 g/ha, POSTEMERGENCE)
50: Plant response rating, Chickweed (chickweed; PREEMERGENCE, 62 g/ha) | Plant response rating (0 to 100), Giant foxtail (giant foxtail; Rate 16 g/ha, POSTEMERGENCE) | Plant response rating (0 to 100), Sugar beet (sugar beet; Rate 16 g/ha, PREEMERGENCE)
0: Plant response rating, Corn (corn; PREEMERGENCE, 62 g/ha) | Plant response rating (0 to 100), Corn (corn; PREEMERGENCE, Rate 4 g/ha) | Plant response rating (0 to 100), Corn (corn; Rate 16 g/ha, PREEMERGENCE) | Plant response rating, Nutsedge (purple nutsedge; PREEMERGENCE, Rate 50 g/ha) | Plant response rating (0 to 10 scale), Nutsedge (purple nutsedge; PREEMERGENCE, Rate 200 g/ha) | Plant response rating, Cocklebur (cocklebur; PREEMERGENCE, Rate 50 g/ha) | Plant response rating (0 to 10 scale), Cocklebur (cocklebur; PREEMERGENCE, Rate 200 g/ha) | Plant response rating (0 to 100), Blackgrass (blackgrass; PREEMERGENCE, Rate 4 g/ha) | Plant response rating (0 to 100), Umbrella sedge (umbrella sedge; [3]) | Plant response rating (0 to 100), Umbrella sedge (umbrella sedge; [4]) | Plant response rating Umbrella sedge (umbrella sedge; 62 g/ha) | Plant response rating (0 to 100), Chickweed (chickweed; PREEMERGENCE, Rate 4 g/ha) | Plant response rating (0 to 100), Chickweed (chickweed; Rate 16 g/ha, PREEMERGENCE) | Plant response rating (0 to 100), Duck salad (duck salad; [3]) | Plant response rating (0 to 100), Rice Japonica (rice [1]; [3]) | Plant response rating (0 to 100), Rice Japonica (rice [1]; [4]) | Plant response rating (0 to 100), Bedstraw (bedstraw; PREEMERGENCE, Rate 4 g/ha) | Plant response rating (0 to 100), Giant foxtail (giant foxtail; PREEMERGENCE, Rate 4 g/ha) | Plant response rating (0 to 100), Giant foxtail (giant foxtail; Rate 16 g/ha, PREEMERGENCE) | Plant response rating (0 to 100), Cotton (cotton; PREEMERGENCE, Rate 4 g/ha) | Plant response rating (0 to 100), Cotton (cotton; Rate 16 g/ha, PREEMERGENCE) | Plant response rating (0 to 100), Sugar beet (sugar beet; PREEMERGENCE, Rate 4 g/ha) | Plant response rating, Rice (rice [2]; PREEMERGENCE, Rate 50 g/ha) | Plant response rating (0 to 10 scale), Rice (rice [2]; PREEMERGENCE, Rate 200 g/ha) | Plant response rating, Soybean (soybean; PREEMERGENCE, Rate 50 g/ha) | Plant response rating (0 to 10 scale), Soybean (soybean; PREEMERGENCE, Rate 200 g/ha) | Plant response rating (0 to 100), Pigweed (pigweed; PREEMERGENCE, Rate 4 g/ha)
60: Plant response rating, Corn (corn; POSTEMERGENCE, 250 g/ha) | Plant response rating, Corn (corn; PREEMERGENCE, 250 g/ha) | Plant response rating (0 to 100), Velvetleaf (velvetleaf; POSTEMERGENCE, Rate 4 g/ha) | Plant response rating, Blackgrass (blackgrass; POSTEMERGENCE, 62 g/ha) | Plant response rating (0 to 100), Bedstraw (bedstraw; POSTEMERGENCE, Rate 4 g/ha)
4: Plant response rating, Wild buckwheat (wild buckwheat; PREEMERGENCE, Rate 50 g/ha)
75: Plant response rating, Velvetleaf (velvetleaf; POSTEMERGENCE, 62 g/ha) | Plant response rating Duck salad (duck salad; 62 g/ha)
90: Plant response rating Duck salad (duck salad; 250 g/ha) | Plant response rating, Bedstraw (bedstraw; PREEMERGENCE, 250 g/ha) | Plant response rating, Giant foxtail (giant foxtail; POSTEMERGENCE, 250 g/ha) | Plant response rating, Cotton (cotton; PREEMERGENCE, 250 g/ha) | Plant response rating (0 to 100), Pigweed (pigweed; Rate 16 g/ha, PREEMERGENCE)
